{
  "source": "patent US20190358264A1",
  "about": "“METHODS OF TREATING DISEASES ASSOCIATED WITH ILC2 CELLS” (Limm Therapeutics, SA, priority 2016, published 2019)",
  "test_system": "Th2",
  "assay": "In vitro stimulation of Th2 cells with NmU23, type 2 cytokine gene expression",
  "type": "cell-based, mouse",
  "conditions": "NmU23 100 ng/mL in vitro (FIG. 9f)",
  "excerpt": "FIGS. 9a-9i: FIG. 9a, Nmur1 quantitative RT-PCR analysis in the lungs at day 6 post Nippostrongylus brasiliensis (NB)—infection in lung. Eosinophils (Eo); Mast cells (Mast); Macrophages (Mø); Neutrophils (Neu); naive T cells (T); Innate lymphoid cells type 2 (ILC2). FIG. 9b, NMUR1 expression in human adaptive (CD4 T cells) and innate type 2 lymphocytes ILC2 from blood. FIG. 9c, Type 2 cytokine gene expression in human ILC2 and Th2 after in vitro stimulation with the peptide NmU25. FIG. 9d, Nmur1 expression in lung ILC2 before and after infection (at day 6). FIG. 9e, Nmur1 expression in steady state in Common lymphoid progenitor (CLP); Common helper innate lymphoid progenitor (CHILP), Bone marrow ILC2 progenitor (ILC2P) and Eo, Mast, Mø, Neu, Dendritic cells (DC); naive T cells (T); T-helper 2 cells (Th2); memory T cells, B cells (B), Lamina Propria glial cells (G) and neurons (N). n=3-6. FIG. 9f, Type 2 cytokine gene expression in intestinal ILC2 and Th2 after in vitro stimulation with the peptide NmU23 (100 ng/mL). n=3-6. FIG. 9g, Confocal analysis of intestinal lamina propria. Green: neurons (Ret^GFP); Cyan: KLRG1; red: CD3. […]\nTotal RNA was extracted using RNeasy micro kit (Qiagen) according to the manufacturer's protocol. RNA concentration was determined using Nanodrop Spectrophotometer (Nanodrop Technologies). Quantitative real-time RT-PCR was performed as previously described^5,8. […]",
  "data": [
    {"substance": "recombinant mouse Neuromedin U 23 peptide (FKAEYQSPSVGQSKGYFLFRPRN; listed as Mus musculus) [NmU23, NMUR1 agonist neuropeptide, Phoenix pharmaceuticals]", "values": [
      {"measurement": "type 2 cytokine gene expression in adaptive T cell counterparts (Th2)", "result": "unperturbed"}
    ]}
  ]
}
